This assay has as its system T1, MaCCR1.
T1 construct: full-length CDS in pET-28a, His-tagged, expressed in E. coli BL21(DE3)
The assay is described as follows: absorbance decrease of substrate, microplate reader, non-linear fit. Type of assay: biochemical, Morus alba. The source says: absorbance decrease of substrate, microplate reader, non-linear fit on MaCCR1

Molecules are shown by their SMILES.

On to `COc1cc(/C=C/C(=O)SCCNC(=O)CCNC(=O)[C@H](O)C(C)(C)COP(=O)(O)OP(=O)(O)OC[C@H]2O[C@@H](n3cnc4c(N)ncnc43)[C@H](O)[C@@H]2OP(=O)(O)O)cc(OC)c1O` [sinapyl-CoA], for which, where the note is “pH and temperature of the kinetic assay not given”, the Michaelis-Menten constant (Km) amounted to 160 µM.
On to `COc1cc(/C=C/C(=O)SCCNC(=O)CCNC(=O)[C@H](O)C(C)(C)COP(=O)(O)OP(=O)(O)OC[C@H]2O[C@@H](n3cnc4c(N)ncnc43)[C@H](O)[C@@H]2OP(=O)(O)O)ccc1O` [feruloyl CoA], for which, for the setting “pH and temperature of the kinetic assay not printed (optimum pH 6.0, 20 °C with feruloyl CoA)”, the Michaelis constant (Km) was 62.6 µM.

The Km is the substrate concentration at which the rate is half of its maximum.
